Laboratory results from patent publication US20150150159A1, “METHOD FOR CONTROLLING FUNGAL DISEASES IN MUSHROOM PRODUCTION” (DSM IP ASSETS B.V., priority 2012, published 2015).

Test system: Trichoderma harzianum
Assay: In vitro antifungal activity assay in 96-well microtiter plates (mould growth reduction, Colby synergy)
Assay type: cell-based
Description: The following compositions are tested: • Control (no active ingredient), • 1.25 ppm natamycin (DSM Food Specialties, Delft, The Netherlands), • 0.5, 1.0, 1.25 or 1.5 ppm thiabendazole, • 1.25 ppm natamycin+0.5 ppm thiabendazole, • 1.25 ppm natamycin+1.0 ppm thiabendazole, • 1.25 ppm natamycin+1.25 ppm thiabendazole, • 1.25 ppm natamycin+1.5 ppm thiabendazole. […] Subsequently, 100 μl of a Trichoderma harzianum suspension prepared in PCB medium is used to inoculate each well with 5.0×10^3 spores/ml. […] After incubation of the microtiter plates for 3, 5, 10 and 17 days at 25° C., the in vitro antifungal activity (%) of the individual active ingredients was assessed by calculating the reduction in mould growth observed in the presence of the active ingredient in comparison to the mould growth observed in the absence of the active ingredient. The expected antifungal activity (E in %) of the active ingredient combination was calculated according to the Colby equation (Colby, 1967): E=X+Y−[(X·Y)/100] wherein X and Y are the observed antifungal activities (in %) of the individual active ingredients X and Y, respectively. If the observed antifungal activity (O in %) of the combination exceeds the expected antifungal activity (E in %) of the combination and the resulting synergy factor O/E is thus >1.0, the combined application of the active ingredients leads to a synergistic antifungal effect.

Measured: Observed antifungal activity O (%)

c1ccc2[nH]c(-c3cscn3)nc2c1 [Thiabendazole, 4-(1H-1,3-benzodiazol-2-yl)-1,3-thiazole]
0%: Thiabendazole 0.5 ppm, 3 days incubation at 25° C. | Thiabendazole 1.0 ppm, 5 days incubation at 25° C. | Thiabendazole 1.25 ppm, 5 days incubation at 25° C. | Thiabendazole 1.25 ppm, 10 days incubation at 25° C. | Thiabendazole 1.5 ppm, 10 days incubation at 25° C. | Thiabendazole 1.5 ppm, 17 days incubation at 25° C.

C[C@@H]1C/C=C/C=C/C=C/C=C/[C@H](O[C@@H]2O[C@H](C)[C@@H](O)[C@H](N)[C@@H]2O)C[C@@H]2O[C@](O)(C[C@@H](O)C[C@H]3O[C@@H]3/C=C/C(=O)O1)C[C@H](O)[C@H]2C(=O)O [Natamycin, natamycin]
0%: Natamycin 1.25 ppm, 3 days incubation at 25° C. | Natamycin 1.25 ppm, 5 days incubation at 25° C. | Natamycin 1.25 ppm, 10 days incubation at 25° C. | Natamycin 1.25 ppm, 17 days incubation at 25° C.
